Reference: patent US12655125B2 (SIRONAX LTD., priority 2020, dated 2026)
Like-named read-outs stand apart in the source and are kept apart here.

Tested on: HT-29 cells
Assay: HT29 Cells 0FBS Assay In Vitro (TNF-α/SMAC mimetic/zVAD-FMK induced necroptosis, CellTiter-Glo cell viability)
Type: cell-based
Conditions: Homo sapiens, HT-29 cells, FBS free medium, TNF-α (10 ng/ml), SMAC mimetic (6 uM), zVAD-FMK (10 μM), 20 hours, geometric mean EC50
Summary of the method: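 HT-29 cells (5,000/well, seeded overnight) in serum-free McCoy's 5A were stimulated with TNF-α 10 ng/ml, SMAC mimetic 6 μM and zVAD-FMK 10 μM to induce necroptosis. Compound added as 10-point 3-fold series for 20 h at 37° C. CellTiter-Glo luminescence gives viability; EC50 is geometric mean of duplicate dose-responses.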

[1] = read-out: Cell activity (EC50) of Compounds 117-281
[2] = read-out: Cell activity (EC50) of Compounds 1-116

Row | Structure (SMILES) | EC50 [1] | EC50 [2]
1 | Cc1c(-c2cc(OC3CN(C(=O)N4N=CC[C@H]4c4cc(F)cc(F)c4)C3)c(F)cn2)nn(C)c1N [compound 218, (S)-(3-((2-(5-amino-1,4-dimethyl-1H-pyrazol-3-yl)-5-fluoropyridin-4-yl)oxy)azetidin-1-yl)(5-(3,5-difluorophenyl)-4,5-dihydro-1H-pyrazol-1-yl)methanone] | 0.1 to 100 nM | 
2 | NC(=O)Cn1nccc1-c1ncc(F)c(OC2CN(C(=O)N3N=CC[C@H]3c3cc(F)cc(F)c3)C2)n1 [compound 88, (S)-2-(5-(4-((1-(5-(3,5-difluorophenyl)-4,5-dihydro-1H-pyrazole-1-carbonyl)azetidin-3-yl)oxy)-5-fluoropyrimidin-2-yl)-1H-pyrazol-1-yl)acetamide] |  | 100 to 1000 nM
3 | Cc1nn(-c2cc(OC3CN(C(=O)N4N=CC[C@H]4c4cc(F)cc(F)c4)C3)c(F)cn2)c(C)c1C(C)(C)C(N)=O [compound 280, (S)-2-(1-(4-((1-(5-(3,5-difluorophenyl)-4,5-dihydro-1H-pyrazole-1-carbonyl)azetidin-3-yl)oxy)-5-fluoropyridin-2-yl)-3,5-dimethyl-1H-pyrazol-4-yl)-2-methylpropanamide] | 0.1 to 100 nM | 
4 | CCOC(=O)c1c(C)cc(C)n1-c1cc(OC2CN(C(=O)N3N=CC[C@H]3c3cc(F)cc(F)c3)C2)c(F)cn1 [compound 128, Ethyl (S)-1-(4-((1-(5-(3,5-difluorophenyl)-4,5-dihydro-1H-pyrazole-1-carbonyl)azetidin-3-yl)oxy)-5-fluoropyridin-2-yl)-3,5-dimethyl-1H-pyrrole-2-carboxylate] | 0.1 to 100 nM | 
5 | Cc1nn(S(C)(=O)=O)c(C)c1-c1cc(OC2CN(C(=O)N3N=CC[C@H]3c3cc(F)cc(F)c3)C2)c(F)cn1 [compound 187, (S)-(5-(3,5-difluorophenyl)-4,5-dihydro-1H-pyrazol-1-yl)(3-((2-(3,5-dimethyl-1-(methylsulfonyl)-1H-pyrazol-4-yl)-5-fluoropyridin-4-yl)oxy)azetidin-1-yl)methanone] | 0.1 to 100 nM | 
6 | CNS(=O)(=O)c1c(C)nn(-c2cc(OC3CN(C(=O)N4N=CC[C@H]4c4cc(F)cc(F)c4)C3)c(F)cn2)c1C [compound 230, (S)-1-(4-((1-(5-(3,5-difluorophenyl)-4,5-dihydro-1H-pyrazole-1-carbonyl)azetidin-3-yl)oxy)-5-fluoropyridin-2-yl)-N,3,5-trimethyl-1H-pyrazole-4-sulfonamide] | 0.1 to 100 nM | 
7 | Cc1nc(C(N)=O)c(C)n1-c1cc(OC2CN(C(=O)N3N=CC[C@H]3c3cc(F)cc(F)c3)C2)c(F)cn1 [compound 200, (S)-1-(4-((1-(5-(3,5-difluorophenyl)-4,5-dihydro-1H-pyrazole-1-carbonyl)azetidin-3-yl)oxy)-5-fluoropyridin-2-yl)-2,5-dimethyl-1H-imidazole-4-carboxamide] | 0.1 to 100 nM | 
8 | Cc1nscc1-c1cc(OC2CN(C(=O)N3N=CC[C@H]3c3cc(F)cc(F)c3)C2)c(F)cn1 [compound 17, (S)-(5-(3,5-difluorophenyl)-4,5-dihydro-1H-pyrazol-1-yl)(3-((5-fluoro-2-(3-methylisothiazol-4-yl)pyridin-4-yl)oxy)azetidin-1-yl)methanone] |  | 0.1 to 100 nM
9 | Cc1c([S+](C)[O-])nn(C)c1-c1cc(OC2CN(C(=O)N3N=CC[C@H]3c3cc(F)cc(F)c3)C2)c(F)cn1 (stereo in doubt) [compound 178, (5-(3,5-difluorophenyl)-4,5-dihydro-1H-pyrazol-1-yl)(3-((2-(1,4-dimethyl-3-(methylsulfinyl)-1H-pyrazol-5-yl)-5-fluoropyridin-4-yl)oxy)azetidin-1-yl)methanone] | 0.1 to 100 nM | 
10 | Cc1[nH]c(C(N)=O)c(C)c1-c1cc(OC2CN(C(=O)N3N=CC[C@H]3c3cc(F)cc(F)c3)C2)c(F)cn1 [compound 191, (S)-4-(4-((1-(5-(3,5-difluorophenyl)-4,5-dihydro-1H-pyrazole-1-carbonyl)azetidin-3-yl)oxy)-5-fluoropyridin-2-yl)-3,5-dimethyl-1H-pyrrole-2-carboxamide] | 0.1 to 100 nM | 
